The text below walks through data of DBAASP.

Converted amounts (≈) assume the structure as drawn. A value given as a limit tells only on which side of the number the result lay.

Among the test systems are Staphylococcus aureus; Escherichia coli; Candida albicans; Acinetobacter baumannii; Pseudomonas aeruginosa; Escherichia coli UB1005.
What all share (experiment): ≥ marks a high value that may be exact or a test limit, other limits are often not marked, values filed in µg/mL are converted to µM
Experiment [1] has as its system Escherichia coli ATCC 25922.
For experiment [2], the system named is Staphylococcus aureus ATCC 25923.
Experiment [3] concerns Pseudomonas aeruginosa ATCC 9027.
Experiment [4] deals with Klebsiella pneumoniae ATCC 700603.
Experiment [5] has as its system Pseudomonas aeruginosa ATCC 27853.
The subject of experiment [6] is Acinetobacter baumannii ATCC 19606.
The test system of experiment [7] is Pseudomonas aeruginosa PAO1.

As usually defined, the MIC is the lowest concentration found to suppress growth. In the case of `CC[C@H](C)[C@H](NC(=O)[C@H](CC(C)C)NC(=O)[C@H](Cc1cnc[nH]1)NC(=O)[C@@H](NC(=O)[C@@H](NC(=O)[C@@H](NC(=O)CNC(=O)[C@H](CC(C)C)NC(=O)[C@H](C)NC(=O)[C@H](C)NC(=O)[C@H](CCCCN)NC(=O)CNC(=O)[C@@H](NC(=O)[C@H](Cc1cnc[nH]1)NC(=O)[C@H](CCCCN)NC(=O)[C@@H](NC(=O)[C@@H](NC(=O)[C@H](CC(=O)O)NC(=O)[C@H](CC(C)C)NC(=O)[C@H](Cc1ccccc1)NC(=O)CN)C(C)C)[C@@H](C)CC)C(C)C)C(C)C)C(C)C)[C@@H](C)O)C(=O)N[C@@H](CC(N)=O)C(=O)N[C@@H](CCC(N)=O)C(N)=O` [GFLDVIKHVGKAALGVVTHLINQ], the MIC with Staphylococcus aureus came out at 6.58 µM (≈ 16 µg/mL); against Escherichia coli, 26.3 µM (≈ 64 µg/mL); with Candida albicans, 13.2 µM (≈ 32 µg/mL).

`CC[C@H](C)[C@H](NC(=O)[C@H](Cc1c[nH]c2ccccc12)NC(=O)[C@H](CCCCN)NC(=O)[C@@H](NC(=O)[C@H](CC(C)C)NC(=O)[C@H](CO)NC(=O)[C@H](CCCCN)NC(=O)CN)C(C)C)C(=O)N[C@H](C(=O)N[C@@H](CCCCN)C(=O)N[C@@H](CO)C(=O)N[C@H](C(=O)N[C@@H](CCCN=C(N)N)C(=O)N[C@@H](CCCCN)C(=O)N[C@@H](C)C(N)=O)C(C)C)C(C)C` [GKSLVKWIVKSVRKA]: the MIC against Acinetobacter baumannii is 25 µM (≈ 42.5 µg/mL); in experiment [1] it was above 25 µM; in experiment [2], above 25 µM; in [3], above 25 µM; in [4], above 25 µM.

On to `CC(C)C[C@H](NC(=O)CNC(=O)[C@@H]1CCCN1C(=O)[C@H](CCCCN)NC(=O)[C@H](CCCCN)NC(=O)[C@@H]1CCCN1C(=O)[C@H](CCCN=C(N)N)NC(=O)[C@H](CC(=O)O)NC(=O)[C@@H](N)CCCCN)C(=O)N[C@@H](CS)C(=O)N1CCC[C@H]1C(=O)N[C@@H](C)C(=O)N[C@@H](C)C(=O)N[C@@H](CCCCN)C(=O)N[C@@H](CCCCN)C(=O)N[C@@H](C)C(=O)N[C@@H](C)C(=O)N[C@@H](C)C(=O)N[C@@H](C)C(=O)N[C@@H](CCCCN)C(=O)N[C@@H](C)C(N)=O` [KDRPKKPGLCPAAKKAAAAKA], for which the minimal inhibitory concentration (MIC) against Pseudomonas aeruginosa is 58.9 µM (≈ 125 µg/mL); in the experiment with Staphylococcus aureus, 118 µM (≈ 250 µg/mL); in experiment [5], 29.5 µM (≈ 62.5 µg/mL); in the experiment with Escherichia coli it was above 236 µM; in [1] it was 14.7 µM (≈ 31.2 µg/mL); in experiment [2] it was 118 µM (≈ 250 µg/mL). Also, the minimum inhibitory concentration (MIC) in the experiment on Candida albicans stood at 236 µM (≈ 500 µg/mL).

Turning to `CC[C@H](C)[C@H](NC(=O)[C@H](CCCN=C(N)N)NC(=O)[C@@H](NC(=O)[C@@H](NC(=O)[C@@H]1CCCN1C(=O)[C@@H](NC(=O)[C@@H](NC(=O)[C@@H](NC(=O)[C@@H]1CCCN1C(=O)CNC(=O)CNC(=O)[C@H](CCCCN)NC(=O)[C@H](CCCCN)NC(=O)[C@H](Cc1c[nH]c2ccccc12)NC(=O)[C@H](C)NC(=O)[C@H](CCCN=C(N)N)NC(=O)[C@H](CC(C)C)NC(=O)[C@@H](NC(=O)[C@H](CCCCN)NC(=O)[C@H](CCCN=C(N)N)NC(=O)CNC(=O)[C@H](CC(C)C)NC(=O)[C@H](CCCCN)NC(=O)[C@H](CCCN=C(N)N)NC(=O)[C@H](CC(C)C)NC(=O)CNC(=O)[C@@H](N)CCCCN)[C@@H](C)CC)[C@@H](C)CC)[C@@H](C)CC)C(C)C)[C@@H](C)CC)[C@@H](C)CC)C(=O)O` [KGLRKLGRKILRAWKKGGPIIVPIIRI], the MIC against Acinetobacter baumannii is 3.25 µM (≈ 10 µg/mL); in experiment [6], 2.3 µM (≈ 7.07 µg/mL).

`CC(C)C[C@H](NC(=O)CNC(=O)[C@H](C)NC(=O)[C@H](CC(C)C)NC(=O)[C@H](CCCCN)NC(=O)[C@H](CCCCN)NC(=O)[C@H](C)NC(=O)[C@H](CC(C)C)NC(=O)CNC(=O)[C@H](C)NC(=O)[C@H](Cc1c[nH]c2ccccc12)NC(=O)[C@H](CCCCN)NC(=O)[C@H](CCCCN)NC(=O)[C@H](C)NC(=O)[C@H](CC(C)C)NC(=O)CNC(=O)[C@H](C)NC(=O)[C@H](CC(C)C)NC(=O)[C@@H](N)CCCCN)C(=O)N[C@@H](C)C(=O)N[C@@H](CCCCN)C(N)=O` [KLAGLAKKWAGLAKKLAGLAK]: the MIC stood at 7.49 µM (≈ 16 µg/mL) in the experiment with Pseudomonas aeruginosa, 7.49 µM (≈ 16 µg/mL) in the experiment with Staphylococcus aureus and 3.74 µM (≈ 8 µg/mL) with Escherichia coli.

`CC(C)C[C@H](NC(=O)CNC(=O)[C@H](C)NC(=O)[C@H](CC(C)C)NC(=O)[C@H](CCCCN)NC(=O)[C@H](C)NC(=O)[C@H](CCCCN)NC(=O)[C@H](CC(C)C)NC(=O)CNC(=O)[C@H](C)NC(=O)[C@H](Cc1c[nH]c2ccccc12)NC(=O)[C@H](CCCCN)NC(=O)[C@H](C)NC(=O)[C@H](CCCCN)NC(=O)[C@H](CC(C)C)NC(=O)CNC(=O)[C@H](C)NC(=O)[C@H](CC(C)C)NC(=O)[C@@H](N)CCCCN)C(=O)N[C@@H](CCCCN)C(=O)N[C@@H](C)C(N)=O` [KLAGLKAKWAGLKAKLAGLKA]: the MIC with Pseudomonas aeruginosa, against Staphylococcus aureus and against Escherichia coli was above 120 µM each time.

In the experiment with Pseudomonas aeruginosa, `CC[C@H](C)[C@H](NC(=O)[C@H](Cc1ccccc1)NC(=O)[C@H](CO)NC(=O)[C@H](CCCCN)NC(=O)[C@H](Cc1c[nH]c2ccccc12)NC(=O)[C@@H](N)CCCCN)C(=O)N[C@@H](CCCCN)C(=O)N[C@@H](CCCCN)C(=O)N[C@@H](CC(C)C)C(=O)N[C@H](C(=O)N[C@@H](CO)C(=O)N[C@@H](CCCCN)C(=O)N[C@@H](CCCCN)C(=O)N[C@@H](CC(C)C)C(=O)N[C@@H](Cc1cnc[nH]1)C(=O)N[C@@H](CO)C(=O)N[C@@H](C)C(=O)N[C@@H](CCCCN)C(=O)N[C@@H](CCCCN)C(=O)N[C@@H](Cc1ccccc1)C(N)=O)[C@@H](C)O` [KWKSFIKKLTSKKLHSAKKF] returned an MIC above 20.5 µM.

Consider `CC[C@H](C)[C@H](NC(=O)[C@H](CC(C)C)NC(=O)[C@H](CCC(N)=O)NC(=O)[C@@H](NC(=O)[C@H](CC(C)C)NC(=O)[C@H](CCCN=C(N)N)NC(=O)[C@H](CCCN=C(N)N)NC(=O)[C@@H](NC(=O)[C@H](C)NC(=O)[C@H](CCCCN)NC(=O)[C@H](CCCN=C(N)N)NC(=O)[C@@H](N)CC(C)C)[C@@H](C)O)C(C)C)C(=O)N[C@H](C(=O)N[C@@H](CO)C(=O)NCC(=O)O)C(C)C` [LRKATRRLVQLIVSG], for which the minimum inhibitory concentration (MIC) in the experiment with Acinetobacter baumannii was 25 µM (≈ 42.8 µg/mL); in experiment [1], above 25 µM; in [2] it was above 25 µM; in [3] it was above 25 µM; in experiment [4], above 25 µM.

`CSCC[C@H](NC(=O)[C@@H](NC(=O)[C@H](CCCN=C(N)N)NC(=O)[C@H](Cc1ccccc1)NC(=O)[C@H](C)NC(=O)[C@H](C)NC(=O)[C@H](CCCCN)NC(=O)[C@H](CCCN=C(N)N)NC(=O)[C@H](Cc1c[nH]c2ccccc12)NC(=O)[C@H](C)NC(=O)[C@@H]1CCCN1C(=O)[C@@H](N)CCCN=C(N)N)C(C)C)C(=O)N[C@@H](CCCN=C(N)N)C(=O)N[C@@H](C)C(=O)N[C@@H](CS)C(=O)N[C@H](C(N)=O)C(C)C` [RPAWRKAAFRVMRACV] had a minimum inhibitory concentration (MIC) in the experiment on Pseudomonas aeruginosa of 2.09 µM (≈ 4 µg/mL).

For `CC[C@H](C)[C@H](NC(=O)[C@H](CCCCN)NC(=O)[C@H](CS)NC(=O)[C@H](C)NC(=O)[C@@H](NC(=O)[C@H](Cc1ccccc1)NC(=O)CNC(=O)[C@H](CC(C)C)NC(=O)CNC(=O)[C@@H](NC(=O)[C@H](CCCCN)NC(=O)[C@H](CCCCN)NC(=O)[C@H](CC(C)C)NC(=O)[C@H](CC(N)=O)NC(=O)[C@H](CCCCN)NC(=O)[C@H](CC(C)C)NC(=O)[C@@H](NC(=O)[C@H](CO)NC(=O)[C@H](CC(C)C)NC(=O)[C@H](CCSC)NC(=O)[C@@H](N)CO)C(C)C)C(C)C)C(C)C)C(=O)N[C@@H](CC(N)=O)C(=O)N[C@@H](CCCCN)C(=O)N[C@@H](CCC(N)=O)C(=O)N[C@@H](CS)C(=O)O` [SMLSVLKNLKKVGLGFVACKINKQC], the minimal inhibitory concentration (MIC) in the experiment with Staphylococcus aureus was above 200 µM; with Escherichia coli it was 200 µM (≈ 544 µg/mL); against Candida albicans, above 200 µM.

As to `CC(C)C[C@H](NC(=O)[C@H](Cc1ccc(O)cc1)NC(=O)[C@@H]1CCCN1C(=O)[C@@H]1CCCN1C(=O)[C@H](CCCCN)NC(=O)[C@H](CC(=O)O)NC(=O)[C@@H](N)C(C)C)C(=O)N1CCC[C@H]1C(=O)N[C@@H](CCCN=C(N)N)C(=O)N1CCC[C@H]1C(=O)N[C@@H](CCCN=C(N)N)C(=O)N1CCC[C@H]1C(=O)N1CCC[C@H]1C(=O)N[C@@H](CCCN=C(N)N)C(=O)N[C@@H](CCCN=C(N)N)C(=O)N[C@@H](Cc1ccccc1)C(=O)N[C@@H](Cc1ccc(O)cc1)C(=O)N[C@@H](CC(N)=O)C(=O)N[C@@H](CCCN=C(N)N)C(N)=O` [VDKPPYLPRPRPPRRFYNR], the MIC worked out at 6.6 µM (≈ 16 µg/mL) in experiment [2], 0.364 µM (≈ 0.883 µg/mL) against Escherichia coli UB1005 and 106 µM (≈ 256 µg/mL) in experiment [7].

Regarding `CC(C)C[C@H](NC(=O)[C@H](Cc1ccc(O)cc1)NC(=O)[C@@H]1CCCN1C(=O)[C@@H]1CCCN1C(=O)[C@H](CCCCN)NC(=O)[C@@H]1CCCN1C(=O)[C@@H](N)C(C)C)C(=O)N1CCC[C@H]1C(=O)N[C@@H](CCCN=C(N)N)C(=O)N1CCC[C@H]1C(=O)N[C@@H](CCCN=C(N)N)C(=O)N1CCC[C@H]1C(=O)N1CCC[C@H]1C(=O)N[C@@H](CCCN=C(N)N)C(=O)N[C@@H](CCCN=C(N)N)C(=O)N[C@@H](Cc1ccccc1)C(=O)N[C@@H](Cc1ccc(O)cc1)C(=O)N[C@@H](CC(N)=O)C(=O)N[C@@H](Cc1cnc[nH]1)C(N)=O` [VPKPPYLPRPRPPRRFYNH], the values for the MIC (in [2]; in the experiment with Escherichia coli UB1005; in [7]) were 3.35 µM (≈ 8 µg/mL), 16.8 µM (≈ 40 µg/mL) and 107 µM (≈ 256 µg/mL), respectively.
